Tests used:
[1] = target: T1, 5-HT7 receptors (Homo sapiens, UniProt P34969); assay: Radiolabeled binding ([3H]LSD competition, membrane fractions)
[2] = target: T1, 5-HT7 receptors; assay: Functional cAMP enzyme fragment complementation assay (HitHunter cAMP), antagonist Kb; type: cell-based; set-up: expressed in transfected cells; conditions: cells expressing human 5HT7, antagonist mode with EC70 5-HT
Method: Functional efficacy of the compounds of the disclosure on 5-HT7 serotonin receptors are measured in a cell based cAMP enzyme fragment complementation assay using the HitHunter cAMP assay (DiscoveRx). Cells stably expressing human 5HT7 receptors are plated in 96-well plates at 4000 cells/well, 16-20 hours prior to assay in growth media (Ultraculture medium, 2 mM GlutaMax and G418 1 mg/mL. Serial dilutions of the agonist, 5-hydroxytryptamine (5-HT), are prepared in a final concentration range of 10 μM to 10 nM. Compounds of the disclosure are prepared in 3-fold serial dilutions to obtain a final concentration range of 10 μM to 0.1 nM. Compounds of the disclosure are tested for agonist activity in the absence of 5-HT and antagonist activity in the presence of 5-HT. For the cAMP assay, the protocol is followed according to the instructions provided by the supplier. Briefly, cells are incubated with a compound of the disclosure for 30 minutes at 37° C. prior to addition of EC70 concentration of 5-HT. After an additional 30 minutes, cAMP antibody/cell lysis solution is added (20 μL/well) and incubated for 60 minutes at room temperature. cAMP XS+EA reagent is added (20 μL/well) and incubated for 2 hours at room temperature. Luminescence is read on the Envision Multilabel plate reader.

T1 sequence (P34969 whole entry, the tested form may be a part): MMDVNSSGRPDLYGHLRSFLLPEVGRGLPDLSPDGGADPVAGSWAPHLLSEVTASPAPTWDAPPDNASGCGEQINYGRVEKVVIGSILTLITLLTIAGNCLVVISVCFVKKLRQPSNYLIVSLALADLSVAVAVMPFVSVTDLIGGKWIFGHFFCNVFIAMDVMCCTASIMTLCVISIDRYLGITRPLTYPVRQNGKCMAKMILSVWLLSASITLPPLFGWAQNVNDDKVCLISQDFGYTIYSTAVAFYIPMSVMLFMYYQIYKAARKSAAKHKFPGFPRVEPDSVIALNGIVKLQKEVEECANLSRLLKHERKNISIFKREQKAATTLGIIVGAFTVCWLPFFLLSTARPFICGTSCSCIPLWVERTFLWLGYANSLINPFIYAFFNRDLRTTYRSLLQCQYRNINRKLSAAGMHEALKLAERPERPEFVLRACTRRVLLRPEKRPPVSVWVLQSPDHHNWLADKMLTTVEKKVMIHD

Compound	Ki [1] [nM]	Kb [2] [nM]
CS(=O)(=O)NCC(=O)N1CCC2(CC1)C[C@H](CCN1CCN(c3cccc(Cl)c3)CC1)OC2=O [Compound 9]	50 to 200	10 to 100
CC(=O)NCC(=O)N1CCC2(CC1)C[C@H](CCN1CCN(c3ccc(F)cc3)CC1)OC2=O [Compound 6]		10 to 100

From US20230025932A1, “NOVEL FUNCTIONALIZED LACTONES AS MODULATORS OF THE 5-HYDROXYTRYPTAMINE RECEPTOR 7 AND THEIR METHOD OF USE” (Temple University-Of The Commonwealth System of Higher …, priority 2019, published 2023)
